Measurements: the supplement of paper PMC10307832

Key:
Test in all cases: relative viability (nuclei count vs DMSO), 5 days (fraction); higher = more cells survive
Sulindac + Lapatinib = compound: CC1=C(CC(=O)O)c2cc(F)ccc2/C1=C\c1ccc([S+](C)[O-])cc1 [Sulindac] + CS(=O)(=O)CCNCc1ccc(-c2ccc3ncnc(Nc4ccc(OCc5cccc(F)c5)c(Cl)c4)c3c2)o1 [Lapatinib] (partner 2 µM)
Summary of the method: (§1)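 After 5 days of treatment, lung cancer cells in 1536-well plates were fixed and stained in a single step (final 0.05% Triton X-100, 1% formaldehyde, 1 ug/ml Hoechst) and their nuclei counted on 4× images. Treatment had been applied by pin tool the day after seeding as one drug alone or as a fixed anchor-drug dose with five library-drug doses (not always all listed) in √10 steps. Relative viability is the nuclei count of treated wells divided by that of vehicle wells, and values are medians of duplicate plates.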

Sulindac + Trametinib = compound: CC1=C(CC(=O)O)c2cc(F)ccc2/C1=C\c1ccc([S+](C)[O-])cc1 [Sulindac] + CC(=O)Nc1cccc(-n2c(=O)n(C3CC3)c(=O)c3c(Nc4ccc(I)cc4F)n(C)c(=O)c(C)c32)c1 [Trametinib] (partner 0.02 µM)
Summary of the method: as §1

Sulindac + Palbociclib = compound: CC1=C(CC(=O)O)c2cc(F)ccc2/C1=C\c1ccc([S+](C)[O-])cc1 [Sulindac] + CC(=O)c1c(C)c2cnc(Nc3ccc(N4CCNCC4)cn3)nc2n(C2CCCC2)c1=O [Palbociclib] (partner 0.5 µM)
Summary of the method: as §1

Sulindac + Alpelisib = compound: CC1=C(CC(=O)O)c2cc(F)ccc2/C1=C\c1ccc([S+](C)[O-])cc1 [Sulindac] + Cc1nc(NC(=O)N2CCC[C@H]2C(N)=O)sc1-c1ccnc(C(C)(C)C(F)(F)F)c1 [Alpelisib] (partner 2 µM)
Summary of the method: as §1

UMC-11
relative viability (Sulindac + Lapatinib; first compound 0.08 µM): 1.16 | relative viability (Sulindac + Lapatinib; first compound 0.253 µM): 1.12 | relative viability (Sulindac + Lapatinib; first compound 0.8 µM): 0.758 | relative viability (Sulindac + Lapatinib; first compound 2.53 µM): 0.946 | relative viability (Sulindac + Lapatinib; first compound 8 µM): 1.15 | relative viability (Sulindac + Trametinib; first compound 0.08 µM): 0.733 | relative viability (Sulindac + Trametinib; first compound 0.253 µM): 0.764 | relative viability (Sulindac + Trametinib; first compound 0.8 µM): 0.679 | relative viability (Sulindac + Trametinib; first compound 2.53 µM): 0.654 | relative viability (Sulindac + Trametinib; first compound 8 µM): 0.757 | relative viability (Sulindac + Palbociclib; first compound 0.08 µM): 0.304 | relative viability (Sulindac + Palbociclib; first compound 0.253 µM): 0.333 | relative viability (Sulindac + Palbociclib; first compound 0.8 µM): 0.318 | relative viability (Sulindac + Palbociclib; first compound 2.53 µM): 0.328 | relative viability (Sulindac + Palbociclib; first compound 8 µM): 0.364 | relative viability (Sulindac + Alpelisib; first compound 0.08 µM): 1.1 | relative viability (Sulindac + Alpelisib; first compound 0.253 µM): 1.05 | relative viability (Sulindac + Alpelisib; first compound 0.8 µM): 0.876 | relative viability (Sulindac + Alpelisib; first compound 2.53 µM): 0.98 | relative viability (Sulindac + Alpelisib; first compound 8 µM): 1.11
